Where only a bound is given, the exact number is not on record here.

Experimental findings from a melting point compilation (Tetko et al.; mined from patent text by program, amines drawn as free bases though some values may be those of a salt) are described below.

Regarding `Cc1ccc(S(=O)(=O)N2CCn3c(c(C(N)=O)c(Cl)c3-c3ccccc3)C2)cc1`, the melting point (as a rule, the temperature of the solid-liquid transition) lay within 188 to 190 °C.

Molecule `COc1ccc(CN2C(=O)[C@@H](NC(=O)Cc3ccccc3)[C@H]2CN=[N+]=[N-])c(OC)c1` (relative stereo) returned a melting point of 110 to 111 °C.

In the case of `c1ccc(COc2ccc(-c3ccc(OCCCN4CCCCC4)cc3)nn2)cc1`, the melting point was determined as 138 °C.

Consider `CCCCc1c(C(=O)OCC)cc(O)c2ccc(OC)cc12`, for which the melting point was in the range of 112 to 115 °C.

For the molecule `CCOC(=O)C1CC2CC(CP(=O)(O)O)CCC2CN1` (configuration not stated), the melting point fell in the range of 184 to 185 °C.

`COc1ccc(N(C(=O)CN2C(=O)CC(=O)N(c3ccncc3)c3ccccc32)C(C)C)cc1` came in with a melting point of 211 to 213 °C.

Turning to `CC(COc1c(-c2ccccc2)c(=O)oc2c(-c3ccccc3)cccc12)CN1CCOCC1` (configuration not stated), the melting point lay in the range of 120 to 121 °C.

On to `CCCOc1cc2ccccc2c2c(=O)c(-c3ccc(OC)cc3)c[nH]c12`, for which the melting point was 172 to 174 °C.

`COC(=O)CCC(=O)c1cc(OC)ccc1OCC(O)CNC(C)(C)C` (configuration not stated) returned a melting point of 70 to 72 °C.

`COc1ccc(C#Cc2ccccc2)c(CC(C)=O)c1`: the melting point was 60 to 62 °C.

`Cc1cccc(-n2c(CF)nc3ccc(N)cc3c2=O)c1C` gave a melting point of 189 to 192 °C.

With `COCC1(CCCCCCCCCCCCC2(C(=O)NS(C)(=O)=O)CC2)CC1`, the melting point was in the range of 44.6 to 45.3 °C.

`C[Si](C)(C)CCOC(=O)CN1C(=O)[C@@H](N2C(=O)c3ccccc3C2=O)CSC1c1ccccc1` (some centres not stated) had a melting point of 58 to 60 °C.

As to `CCOC(=O)C(=O)Nc1c([N+](=O)[O-])cc(C#N)c2ccccc12`, the melting point is 178 °C.

Regarding `O=C(Nc1cccc2c(=O)cc(-c3nnn[nH]3)oc12)c1ccc2c(c1)CCC(COCc1ccccc1)O2` (configuration not stated), the melting point lay within 214 to 216 °C.

For the molecule `COC(=O)c1ccc(OCCC2CC(=O)N(c3ccc(Cl)cc3)C2)cc1` (configuration not stated), the melting point lay within 126 to 128 °C.

As for `CCOC(=O)c1cnn(-c2ccc(Cl)cc2C(F)(F)F)c1C#N`, the melting point lay in the range of 70 to 72 °C.

Take `C=C(C)c1cccc(C(C)(C)N=C=O)c1`: the melting point was 60 to 62 °C.

In turn, `Cc1ccnc2c1N(O)C(=O)c1cccnc1N2C1CC1` gave a melting point of 239 to 241 °C.

As for `O=c1[nH]ccc2c1ccc1[nH]cc(CCN(Cc3ccccc3)Cc3ccccc3)c12`, the melting point lay in the range of 250 to 253 °C.

Regarding `CCN(CC)CC1CCCN(CC(=O)N2c3ccccc3C(=O)Nc3cccnc32)C1` (configuration not stated), the melting point was 199 to 200 °C.

In turn, `O=C(O)C1=Cc2cc(-c3ccc(C(F)(F)F)cc3)ccc2S(=O)(=O)CC1` showed a melting point above 300 °C.

As for `OCc1ccc2c(c1)ncn2-c1cccc(Br)c1`, the melting point was 107 to 109 °C.

As to `COc1cc(N2[C@H](C)C[C@](C)(O)[C@@H]2C)ccc1C#N`, the melting point lay within 121 to 123 °C.

In the case of `CCOC(=O)C1=COc2ccccc2O1`, the melting point was 42 °C.

Regarding `CCCCCCCCCCCN=C1SC(=CC(=O)O)C(=O)N1CCCCCCCCCCC`, the melting point fell in the range of 67 to 68 °C.

For the molecule `CC(Oc1ccc(COc2ccc(Cl)cc2Cl)cc1)C(=O)O` (configuration not stated), the melting point lay within 122 to 123 °C.

Regarding `O=[N+]([O-])c1cc(CCl)ccc1OCc1ccccc1`, the melting point fell in the range of 60 to 61 °C.

Molecule `O=C1N(CC2CCCCC2)c2ccccc2C12COc1cc3c(cc12)OCO3` (configuration not stated) returned a melting point of 153 to 154 °C.

The molecule `O=C(O)c1ccc(C(=O)N2CCN(C(=O)N3CCOCC3)CC2)cc1` had a melting point of 203 to 205 °C.

Turning to `CCCc1c(C(=O)C(C)C)c2ccc(C(N)=O)cc2n1Cc1ccccc1C(N)=O`, the melting point is 273 to 274 °C.

The molecule `Cc1cc(N)ccc1NC(=O)c1ccc(N)cc1` yielded a melting point of 111 to 115 °C.

`CS(=O)(=O)N1CCC(C(=O)Nc2ccccc2Oc2ccc(Cl)cc2Cl)CC1` yielded a melting point of 150 to 151 °C.

Molecule `CC(C)(O)CNC(=O)c1cccc(-c2cccc3cc(Cc4cc(F)cc(Cl)c4)sc23)c1` showed a melting point of 123 °C.

The molecule `Nc1nnc(-c2ccc3occ(-c4cccc(OC(F)(F)F)c4)c3c2)o1` registered a melting point of 182 to 183 °C.

As for `O=c1ncc(Cl)cn1COc1ccccc1`, the melting point turned out to be 146 °C.

On to `COc1ccc2sc(=O)[nH]c2c1`, for which the melting point was 168 to 170 °C.

In the case of `CN(C(=O)C(C)(C)c1cc(C(F)(F)F)cc(C(F)(F)F)c1)c1cnc(NCCO)cc1-c1ccccc1Cl`, the melting point is 117 to 118 °C.

The molecule `COCCOCCOCC(=O)Nc1cc(N)cc(C(=O)O)c1` yielded a melting point of 130 to 131 °C.

Molecule `CC(=O)c1ccc(SCCOc2ccc3ccccc3c2)cc1` yielded a melting point of 151 to 152 °C.

Take `c1nc(Nc2ccc3[nH]ccc3c2)c2sc(-c3ccc(CNC4CC4)cc3)cc2n1`: the melting point is 176 to 180 °C.

With `O=[N+]([O-])c1c(NCCO)cc(NCCO)cc1NCCO`, the melting point was found to be 200 °C.

`COc1ccc(C2=NN(c3ccc(C(C)(C)C)cc3)C(=O)[C@H]3CC=CC[C@@H]23)cc1OC` (relative stereo) came in with a melting point of 197 to 199 °C.

With `Cc1cccc(S(=O)(=O)C2(CC#Cc3ccc(Cl)cc3)SC(=O)NC2=O)n1` (configuration not stated), the melting point was in the range of 104 to 106 °C.

In turn, `COc1ccccc1N1CCN(S(=O)(=O)c2ccc([N+](=O)[O-])cc2)CC1` registered a melting point of 202 to 204 °C.

Molecule `CCCSC(C(N)=O)c1cccc(C(=O)c2ccc(F)cc2)c1N` (configuration not stated) registered a melting point of 140 to 142 °C.

The molecule `COCCN1CC(c2ccccc2)NC1=O` (configuration not stated) yielded a melting point of 82 to 83 °C.

In turn, `CCOc1c(N2CCC(Oc3ccc(CC(=O)N4CCN(c5ccccc5C)CC4C(N)=O)c(OC)c3)CC2)c(=O)c1=O` (configuration not stated) showed a melting point of 155 to 157 °C.

Molecule `Cc1ccccc1-c1nn(C(C)C(=O)N(C)C)cc1Cl` (configuration not stated) showed a melting point of 69 to 71.5 °C.

As for `NC(=O)[C@@H]1C[C@H](F)CN1C(=O)CCl`, the melting point fell in the range of 95 to 96 °C.

`CCCCC12CCC3c4ccc(OC)cc4CCC3C1CCC2O` (configuration not stated) gave a melting point of 123 to 125 °C.

On to `COc1ccc(COC(=O)CC(=O)Oc2ccc(-c3cn4c(n3)sc3ccccc34)cc2)cc1`, for which the melting point is 117 to 119 °C.

For `CS(=O)(=O)Nc1ccc(OCCCNC(=O)c2ccc(Br)cc2)cc1`, the melting point is 208 to 209 °C.

On to `FC(F)Oc1ccc(-c2nnc(Nc3ccc(Cl)c(Cl)c3)s2)cc1`, for which the melting point fell in the range of 265 to 266 °C.

Turning to `CCOC(=O)CC(NC(=O)c1ccc(Cl)cc1)C(=O)C(C)C` (configuration not stated), the melting point is 42 to 44 °C.

Regarding `FCCn1ncnc1COc1nn2c(-c3ccccc3F)nncc2c1-c1ccccc1F`, the melting point fell in the range of 172 to 173 °C.

Turning to `Cc1cccc(-n2c(Cn3ccnc3)nc3ccccc32)c1`, the melting point was 91 to 93 °C.

As to `Cc1cccc(NC(=O)NC2N=C(c3ccccc3F)c3ccccc3N(Cc3cc4ccccc4o3)C2=O)c1` (racemic), the melting point lay within 213 to 214 °C.

As to `O=C1CCCn2c1cc1ccccc12`, the melting point lay in the range of 138 to 140 °C.

As for `CCOC(=O)c1ccccc1N(CC(=O)N(C)c1ccccc1)C(=O)CNC(=O)Nc1cccc(C)c1`, the melting point was determined as 201 °C.

Take `CC1C=CC(C(=O)O)n2c(=O)n(CCC(=O)O)c(=O)n21` (configuration not stated): the melting point is 184 to 186 °C.

In turn, `Nc1ccc(CCC(=O)Nc2ccc(Cl)cc2Cl)cc1N` registered a melting point of 149 to 150 °C.

`Cc1ccccc1NC(=O)Nc1ccc(CNC(=O)OC(C)(C)C)cc1` came in with a melting point of 200 to 202 °C.

`O=[N+]([O-])c1cnn(-c2c(Cl)cc(Cl)cc2Cl)c1O`: the melting point was 106 to 115 °C.

For `O=C(O)Cc1ccc2c(c1)C(=O)c1cc(F)ccc1CO2`, the melting point is 173 to 175 °C.

Turning to `OCCNC(=S)Nc1cccc2ccoc12`, the melting point lay in the range of 138 to 139 °C.

The molecule `O=C1Nc2cccc(-c3cnc4ccccc4c3)c2C12COc1cc3c(cc12)OCCO3` (configuration not stated) gave a melting point of 221 to 224 °C.

`O=C(c1ccccc1Cl)c1ccccc1[N+](=O)[O-]` registered a melting point of 76 to 79 °C.

`N#Cc1ccc(COCCn2cnc3c(N)nc4ccccc4c32)cc1` returned a melting point of 238 to 239 °C.

As to `CC1CCCCC1NC(=O)C1=C(C(=O)Nc2cc(OC3CCCC3)c(Cl)cc2F)CCCC1` (configuration not stated), the melting point was in the range of 192 to 195 °C.

For `COC(=O)c1cc2cc(C=O)ccc2[nH]1`, the melting point is 208 °C.

The molecule `Cc1c(C(=O)Nc2ccc(OCCCN3CCOCC3)c(C#N)c2)cnn1-c1ccc(Cl)cc1` displayed a melting point of 155 to 157 °C.

In turn, `O=C(Cc1ccc(Cl)cc1)NC1N=C(c2ccccc2)c2ccccc2NC1=O` (configuration not stated) returned a melting point of 238 to 240 °C.

For `CC(=O)Nc1nc(CCCl)cs1`, the melting point lay within 161 to 163 °C.

Molecule `c1cn(CCc2ccc3c(c2)-c2[nH]nc(-c4ccsc4)c2C3)cn1` came in with a melting point of 212 to 216 °C.

The molecule `COC1CN=C(N2CCN(c3ccc(O)cc3)CC2)S1` (configuration not stated) registered a melting point of 166 °C.

Molecule `CC(C)OC(=O)OC1Oc2ccc(OS(=O)(=O)N(C)C)cc2C1(C)C` (configuration not stated) gave a melting point of 95 to 96 °C.

Regarding `O=C(Nc1cc(C(F)(F)F)ccc1N1CCc2ccccc21)c1ccccc1`, the melting point lay within 114 to 119 °C.

`CCOC(=O)c1ccccc1NC(=O)Nc1ccccc1I` gave a melting point of 162 to 164 °C.

`COCn1c(-c2ncc(CO)s2)cc2cccc(N(C)S(=O)(=O)c3cccs3)c21` showed a melting point of 156 to 157 °C.

The molecule `NC(=O)C(OCC1c2ccccc2-c2ccccc21)c1ccc(C(=O)O)cc1` (configuration not stated) returned a melting point of 232 to 235 °C.

In the case of `Cc1nccn2c(-c3ccnc(NCCC(C)(C)O)n3)c(-c3ccc(F)cc3F)nc12`, the melting point came out at 175 °C.

Regarding `Cc1oc2c(-n3c(=O)cc(C(F)(F)F)n(C)c3=O)ccc(Cl)c2c1NO`, the melting point lay within 134 to 136 °C.

For `COc1cc(CNC(C)=O)c(Br)cc1O`, the melting point was above 300 °C.

Regarding `NC(=O)CN1C(=O)C[C@@H]2CCC[C@@H]21` (relative stereo), the melting point was 142 to 144 °C.

Turning to `C[C@H]1N(C(=O)c2ccc(OCC(F)(F)C(F)F)cc2)CC(O)O[C@@]1(Cn1cncn1)c1ccc(F)cc1F` (relative stereo), the melting point was in the range of 209 to 210 °C.

`CCCc1c(C#N)c2ccc(C(=O)O)cc2n1Cc1ccccc1Cl` had a melting point of 240 to 241 °C.
